Measured values as given in ChEMBL document CHEMBL1201862, “PubChem BioAssay data set” (2004).
Active and inactive are the calls of the source.

Experiments:
[1] = HEK293T cell cytotoxicity, dose response, cytotoxicity control, CellTiter-Glo luminescence, dry powder, set 2 (AID 720595); assay type: functional, cell-based; conditions: HEK293
cells [2] = assay type: functional, cell-based
cells [3] = assay type: functional, cell-based; remark: listed apart in the source
[4] = HeLa cell cytotoxicity, dose response, cytotoxicity control, CellTiter-Glo luminescence, dry powder, set 2 (AID 720593); assay type: functional, cell-based
Bcl-2-like protein 10 = target: T1, Bcl-2-like protein 10 (Homo sapiens, UniProt Q9HD36); experiment: displacers of TR3 peptide from Bcl-B, primary screen, selectivity assay for Bfl-1 inhibitor project, biochemical, fluorescence polarization, FITC-TR3 peptide (AID 748);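 note: fluorescence polarization from a fluorescein-labelled TR3 peptide binding purified Bcl-B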
T1 sequence (Q9HD36 whole entry): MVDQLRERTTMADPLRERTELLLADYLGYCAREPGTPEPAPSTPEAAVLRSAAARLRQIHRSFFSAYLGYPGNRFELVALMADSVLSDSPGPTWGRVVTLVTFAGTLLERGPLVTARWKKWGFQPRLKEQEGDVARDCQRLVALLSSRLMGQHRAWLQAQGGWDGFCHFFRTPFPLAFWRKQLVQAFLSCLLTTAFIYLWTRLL

[5] = microbe, parasite or virus in culture; assay type: functional; conditions: Mycobacterium tuberculosis
Hexokinase HKDC1 = Hexokinase HKDC1 (Homo sapiens, UniProt Q2TB90); experiment: HKDC1 hexokinase inhibitors, dose response, biochemical, W721R variant (AID 504729); assay type: functional
[6] = HEK293T cytotoxicity, dose response, cytotoxicity control for miR-122 modulator project, cell-based, inhibitor set, cherry-pick, set 2 (AID 720697); assay type: functional
HEK293 = experiment: optical interference in Abeta FP readout, dose response, artefact control for IDE activator project, biochemical, fluorescence polarization (AID 588442); assay type: functional, cell-based; conditions: Homo sapiens
CAAX prenyl protease 2 = CAAX prenyl protease 2 (Saccharomyces cerevisiae S288c, UniProt Q03530); assay type: biochemical
[7] = control 3'UTR Renilla luciferase suppression, dose response, counter-screen for Shn3 inhibitor project, cell-based, Clone20-Shn3RL, cherry-picked (AID 624133); assay type: functional
BJ = experiment: cytotoxicity toward BJ-TERT fibroblasts, dose response, cell-based, RAS-independent, luminescence (AID 1933); assay type: functional; conditions: Homo sapiens
[8] = miR-122 activators in hepatoma reporter cells, dose response, cell-based, Huh7 psiCHECK-miR122, Renilla luciferase, cherry-picked (AID 651956); assay type: functional;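 note: huh7 hepatoma cells stably carrying a psiCHECK-2 miR-122 sensor plasmid; renilla luciferase signal reporting endogenous miR-122 activity after 48 h compound exposure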
CAAX prenyl protease 1 = target: T2, CAAX prenyl protease 1 (Saccharomyces cerevisiae S288c, UniProt P47154); experiment: Ste24 protease inhibitors, dose response, biochemical, S. cerevisiae, plate reader, cherry-pick (AID 488815)
T2 sequence (P47154 whole entry): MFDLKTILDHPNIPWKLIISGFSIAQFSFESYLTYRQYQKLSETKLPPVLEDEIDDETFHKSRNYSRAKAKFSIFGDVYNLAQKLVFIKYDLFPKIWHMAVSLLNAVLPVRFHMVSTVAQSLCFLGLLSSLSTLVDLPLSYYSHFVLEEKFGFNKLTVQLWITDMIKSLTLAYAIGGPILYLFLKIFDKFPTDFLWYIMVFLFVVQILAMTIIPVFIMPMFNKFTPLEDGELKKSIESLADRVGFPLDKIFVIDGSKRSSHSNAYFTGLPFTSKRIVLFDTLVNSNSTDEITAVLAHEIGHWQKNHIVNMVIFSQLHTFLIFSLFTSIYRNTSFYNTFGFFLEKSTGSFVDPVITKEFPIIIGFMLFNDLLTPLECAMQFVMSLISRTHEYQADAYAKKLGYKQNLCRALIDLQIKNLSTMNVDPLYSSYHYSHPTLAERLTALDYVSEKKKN

Misshapen-like kinase 1 = Misshapen-like kinase 1 (Homo sapiens, UniProt Q8N4C8); assay type: functional;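 note: kinome panel screen with MINK as the panel member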
[9] = target: Rho-associated protein kinase 2 (Homo sapiens, UniProt O75116); assay type: functional
[10] = target: High affinity nerve growth factor receptor (Homo sapiens, UniProt P04629); assay type: functional;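 note: NTRK1 tested as one member of a kinome-wide profiling panel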
[11] = target: Tyrosine-protein kinase SYK (Homo sapiens, UniProt P43405); assay type: functional
[12] = target: Cyclin-dependent kinase 2 (Homo sapiens, UniProt P24941); assay type: functional;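 note: CDK2 measured as one member of a broad kinome profiling panel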
[13] = target: Mitogen-activated protein kinase kinase kinase kinase 5 (Homo sapiens, UniProt Q9Y4K4); assay type: functional;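 note: measured as one member of a kinome-spanning kinase panel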
[14] = target: Casein kinase I isoform alpha (Homo sapiens, UniProt P48729); assay type: functional
[15] = target: Hepatocyte growth factor receptor (Homo sapiens, UniProt P08581); assay type: functional;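 note: kinase panel profiling across the kinome, with MET as the panel member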
[16] = target: Serine/threonine-protein kinase Chk1 (Homo sapiens, UniProt O14757); assay type: functional;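 note: measured as one member of a kinome-wide kinase profiling panel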
[17] = target: Serine/threonine-protein phosphatase (Homo sapiens, UniProt Q9BPW0); experiment: PP5 phosphatase inhibitors, dose response, biochemical, fluorescence (AID 2395)
[18] = Vero E6 cell cytotoxicity, dose response, cytotoxicity control for non-replicating M. tuberculosis project, secondary assay (AID 492998); assay type: functional, VeroE6; conditions: Vero C1008

Mitogen-activated protein kinase kinase kinase kinase 5, sequence (Q9Y4K4 whole entry, canonical isoform): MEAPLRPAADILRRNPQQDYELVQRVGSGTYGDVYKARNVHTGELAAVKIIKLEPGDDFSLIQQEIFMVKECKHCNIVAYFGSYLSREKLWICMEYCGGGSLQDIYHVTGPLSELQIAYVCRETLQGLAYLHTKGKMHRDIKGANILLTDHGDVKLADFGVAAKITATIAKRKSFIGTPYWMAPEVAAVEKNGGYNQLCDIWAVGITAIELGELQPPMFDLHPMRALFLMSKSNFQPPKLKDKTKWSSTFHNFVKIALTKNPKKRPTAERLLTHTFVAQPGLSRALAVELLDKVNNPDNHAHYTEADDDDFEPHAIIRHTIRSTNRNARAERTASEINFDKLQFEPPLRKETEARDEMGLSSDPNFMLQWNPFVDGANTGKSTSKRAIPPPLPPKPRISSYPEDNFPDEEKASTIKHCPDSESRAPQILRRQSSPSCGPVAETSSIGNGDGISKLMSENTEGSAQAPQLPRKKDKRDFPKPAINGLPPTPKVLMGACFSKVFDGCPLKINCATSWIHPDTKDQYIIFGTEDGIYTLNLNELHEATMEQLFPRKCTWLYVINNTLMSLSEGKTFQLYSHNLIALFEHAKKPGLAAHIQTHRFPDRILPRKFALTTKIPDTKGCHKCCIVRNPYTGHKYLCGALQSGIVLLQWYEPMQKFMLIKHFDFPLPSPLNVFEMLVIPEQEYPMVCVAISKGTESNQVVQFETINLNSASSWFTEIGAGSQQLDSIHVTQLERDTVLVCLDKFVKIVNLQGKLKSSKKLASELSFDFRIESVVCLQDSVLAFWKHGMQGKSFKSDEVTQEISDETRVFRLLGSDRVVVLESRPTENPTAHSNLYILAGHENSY
Misshapen-like kinase 1, sequence (Q8N4C8 whole entry): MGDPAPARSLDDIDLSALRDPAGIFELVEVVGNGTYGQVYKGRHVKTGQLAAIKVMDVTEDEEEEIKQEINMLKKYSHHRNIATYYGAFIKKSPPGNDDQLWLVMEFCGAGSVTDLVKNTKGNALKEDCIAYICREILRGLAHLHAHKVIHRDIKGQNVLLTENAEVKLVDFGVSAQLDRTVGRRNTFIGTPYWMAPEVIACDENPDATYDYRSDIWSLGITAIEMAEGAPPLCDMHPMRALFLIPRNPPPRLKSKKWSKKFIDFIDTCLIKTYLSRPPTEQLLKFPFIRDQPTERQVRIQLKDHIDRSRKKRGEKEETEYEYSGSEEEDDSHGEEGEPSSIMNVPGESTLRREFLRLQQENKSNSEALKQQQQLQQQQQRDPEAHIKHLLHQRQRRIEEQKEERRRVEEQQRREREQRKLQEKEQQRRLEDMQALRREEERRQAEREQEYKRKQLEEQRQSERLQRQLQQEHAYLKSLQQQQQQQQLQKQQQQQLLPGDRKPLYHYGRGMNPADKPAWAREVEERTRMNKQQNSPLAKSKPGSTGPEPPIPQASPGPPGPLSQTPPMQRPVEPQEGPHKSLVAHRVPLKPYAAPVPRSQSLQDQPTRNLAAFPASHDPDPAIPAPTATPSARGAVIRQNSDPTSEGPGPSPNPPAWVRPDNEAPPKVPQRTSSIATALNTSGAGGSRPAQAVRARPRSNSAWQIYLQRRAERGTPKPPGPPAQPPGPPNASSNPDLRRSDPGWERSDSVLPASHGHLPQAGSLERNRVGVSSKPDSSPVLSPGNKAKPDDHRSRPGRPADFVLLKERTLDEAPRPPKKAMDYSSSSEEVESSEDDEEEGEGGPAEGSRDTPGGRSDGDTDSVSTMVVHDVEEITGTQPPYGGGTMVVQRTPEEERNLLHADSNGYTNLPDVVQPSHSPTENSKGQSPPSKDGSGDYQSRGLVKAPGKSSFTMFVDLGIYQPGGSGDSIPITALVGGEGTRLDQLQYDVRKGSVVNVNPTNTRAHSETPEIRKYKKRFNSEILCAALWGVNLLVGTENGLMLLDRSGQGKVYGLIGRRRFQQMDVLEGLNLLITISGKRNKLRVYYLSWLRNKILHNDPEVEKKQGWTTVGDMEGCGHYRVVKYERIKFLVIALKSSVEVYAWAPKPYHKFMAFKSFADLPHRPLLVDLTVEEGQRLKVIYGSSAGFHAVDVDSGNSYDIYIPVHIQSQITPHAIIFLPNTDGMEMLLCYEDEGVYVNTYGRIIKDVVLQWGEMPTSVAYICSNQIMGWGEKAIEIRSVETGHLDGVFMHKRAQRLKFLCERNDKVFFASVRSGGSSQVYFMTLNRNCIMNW
Rho-associated protein kinase 2, sequence (O75116 whole entry): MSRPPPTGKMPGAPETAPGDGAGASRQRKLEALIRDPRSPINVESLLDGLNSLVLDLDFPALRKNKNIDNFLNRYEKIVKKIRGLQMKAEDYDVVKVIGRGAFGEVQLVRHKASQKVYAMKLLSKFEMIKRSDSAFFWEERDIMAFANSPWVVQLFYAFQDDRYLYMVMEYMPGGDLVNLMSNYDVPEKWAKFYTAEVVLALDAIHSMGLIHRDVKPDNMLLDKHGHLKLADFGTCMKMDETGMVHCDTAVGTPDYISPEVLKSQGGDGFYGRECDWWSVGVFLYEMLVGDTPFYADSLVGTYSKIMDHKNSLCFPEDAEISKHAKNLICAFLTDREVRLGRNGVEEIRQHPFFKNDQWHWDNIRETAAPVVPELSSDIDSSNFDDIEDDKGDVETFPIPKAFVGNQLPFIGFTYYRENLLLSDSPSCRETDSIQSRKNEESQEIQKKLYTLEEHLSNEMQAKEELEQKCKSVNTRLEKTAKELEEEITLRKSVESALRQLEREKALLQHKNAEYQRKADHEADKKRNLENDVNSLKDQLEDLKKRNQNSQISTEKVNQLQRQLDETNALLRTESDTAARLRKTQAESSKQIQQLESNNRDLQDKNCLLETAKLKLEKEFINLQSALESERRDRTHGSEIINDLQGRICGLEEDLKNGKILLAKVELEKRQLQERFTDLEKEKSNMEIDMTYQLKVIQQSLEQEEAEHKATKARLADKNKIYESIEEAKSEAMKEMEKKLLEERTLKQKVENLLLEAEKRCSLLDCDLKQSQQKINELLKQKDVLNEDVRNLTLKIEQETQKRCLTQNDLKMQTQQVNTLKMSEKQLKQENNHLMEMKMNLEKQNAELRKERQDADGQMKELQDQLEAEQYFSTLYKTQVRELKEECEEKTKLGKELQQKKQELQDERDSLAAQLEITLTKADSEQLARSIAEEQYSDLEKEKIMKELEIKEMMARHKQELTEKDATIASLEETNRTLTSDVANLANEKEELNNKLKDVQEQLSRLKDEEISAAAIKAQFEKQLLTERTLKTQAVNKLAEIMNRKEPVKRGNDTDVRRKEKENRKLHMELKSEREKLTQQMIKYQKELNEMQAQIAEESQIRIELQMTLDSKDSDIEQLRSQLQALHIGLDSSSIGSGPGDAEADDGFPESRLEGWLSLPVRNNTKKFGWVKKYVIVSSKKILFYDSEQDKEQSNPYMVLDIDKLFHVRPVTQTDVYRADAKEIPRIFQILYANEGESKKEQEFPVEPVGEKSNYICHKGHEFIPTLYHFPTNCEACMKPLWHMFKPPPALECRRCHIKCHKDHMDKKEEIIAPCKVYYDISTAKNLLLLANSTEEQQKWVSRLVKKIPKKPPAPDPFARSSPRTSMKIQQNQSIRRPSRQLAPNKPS
Hexokinase HKDC1, sequence (Q2TB90 whole entry): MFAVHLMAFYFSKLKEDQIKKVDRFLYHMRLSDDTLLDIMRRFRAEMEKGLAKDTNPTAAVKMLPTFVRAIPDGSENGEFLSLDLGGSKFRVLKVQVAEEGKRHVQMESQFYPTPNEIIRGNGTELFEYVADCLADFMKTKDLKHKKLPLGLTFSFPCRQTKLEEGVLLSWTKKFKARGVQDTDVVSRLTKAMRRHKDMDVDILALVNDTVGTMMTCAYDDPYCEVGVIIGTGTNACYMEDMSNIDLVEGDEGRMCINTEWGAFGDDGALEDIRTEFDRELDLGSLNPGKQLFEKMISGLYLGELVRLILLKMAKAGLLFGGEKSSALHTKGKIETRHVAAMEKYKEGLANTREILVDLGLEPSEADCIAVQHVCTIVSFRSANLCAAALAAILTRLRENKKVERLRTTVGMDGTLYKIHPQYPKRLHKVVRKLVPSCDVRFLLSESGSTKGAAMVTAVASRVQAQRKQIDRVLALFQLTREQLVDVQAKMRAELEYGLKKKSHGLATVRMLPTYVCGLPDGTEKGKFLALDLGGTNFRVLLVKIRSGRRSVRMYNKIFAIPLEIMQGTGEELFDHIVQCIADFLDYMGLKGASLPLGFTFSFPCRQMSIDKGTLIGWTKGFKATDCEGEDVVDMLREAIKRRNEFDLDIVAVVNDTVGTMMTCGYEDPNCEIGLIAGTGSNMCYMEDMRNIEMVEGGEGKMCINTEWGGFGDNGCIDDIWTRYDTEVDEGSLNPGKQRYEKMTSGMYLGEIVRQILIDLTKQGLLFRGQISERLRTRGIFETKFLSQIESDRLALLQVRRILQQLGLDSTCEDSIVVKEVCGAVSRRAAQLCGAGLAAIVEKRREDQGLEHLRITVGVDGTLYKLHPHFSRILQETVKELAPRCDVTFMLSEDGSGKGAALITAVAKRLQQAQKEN
Serine/threonine-protein phosphatase, sequence (Q9BPW0 whole entry): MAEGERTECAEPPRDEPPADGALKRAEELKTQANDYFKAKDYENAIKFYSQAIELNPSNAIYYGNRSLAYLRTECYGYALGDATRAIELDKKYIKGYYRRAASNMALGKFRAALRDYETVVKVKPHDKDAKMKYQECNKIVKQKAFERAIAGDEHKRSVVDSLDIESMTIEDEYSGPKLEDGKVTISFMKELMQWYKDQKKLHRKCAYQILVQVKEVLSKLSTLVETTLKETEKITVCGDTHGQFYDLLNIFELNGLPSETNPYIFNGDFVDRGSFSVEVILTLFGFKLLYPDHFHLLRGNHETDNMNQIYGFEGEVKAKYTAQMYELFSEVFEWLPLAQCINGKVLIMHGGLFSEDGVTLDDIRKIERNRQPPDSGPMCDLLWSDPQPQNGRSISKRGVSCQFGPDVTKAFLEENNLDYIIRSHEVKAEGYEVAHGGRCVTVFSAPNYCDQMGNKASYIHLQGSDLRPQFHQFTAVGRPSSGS

CC(C)CC(=O)NC(c1cccs1)c1ccc2cccnc2c1O (centres undefined)
AC50 [1]: 1.75 µM (active) | EC50 (cells [2]): > 350 µM (not active) | EC50 (cells [3]): 6.65 µM (active) | AC50 [4]: 20.3 µM (active)

CCOC(=O)c1ccc(NC2=CC(=O)C(=O)c3ccccc32)cc1
IC50 (Bcl-2-like protein 10): 60.7 µM (inactive) | CC50 [5]: 21.1 µM (active) | IC50 (Hexokinase HKDC1): 43.9 µM (inactive)

OC(CNCCC1C=Nc2ccccc21)Cn1c2ccc(Cl)cc2c2cc(Cl)ccc21 (centres undefined)
AC50 [6]: 7.91 µM (active) | EC50 (HEK293): > 56 µM (inactive) | AC50 (CAAX prenyl protease 2): 8.21 µM (active) | AC50 [7]: 6.08 µM (active) | EC50 (BJ): 5.3 µM (inconclusive) | AC50 [8]: 12.8 µM (active) | AC50 (CAAX prenyl protease 1): 4.42 µM (active)

NC1CCC(Nc2nc(Cl)cc(-c3c[nH]c4ncccc34)n2)CC1 (centres undefined)
Ki (Misshapen-like kinase 1): 0.02 µM (active) | pKi (Misshapen-like kinase 1): 7.7 | Ki [9]: 0.002 µM (active) | pKi [9]: 8.7 | Ki [10]: > 3.16 µM (inactive) | Ki [11]: > 1.58 µM (inactive) | Ki [12]: 0.0316 µM (active) | pKi [12]: 7.5 | Ki [13]: 0.0501 µM (active) | pKi [13]: 7.3

O=C(O)C1CN(Cc2ccc(OCc3ccccc3)cc2Cl)C1
Ki [14]: > 3.98 µM (inactive) | Ki [15]: > 2.51 µM (inactive) | Ki [16]: > 3.16 µM (inactive)

COc1ccc(C(=O)c2nccc3cc(OC)c(OC)cc23)cc1OC
IC50 [17]: 19.6 µM (not active)

Cc1ccccc1-c1cc2c(nn1)-c1ccccc1C2=O
CC50 [18]: 9.21 µM (active)
